Results on one molecule are retold here after US20040156854A1, “Methods for the identification, assessment, and treatment of patients with proteasome inhibition therapy” (priority 2002, published 2004).

Data set [1] has as its system relapsed/refractory multiple myeloma. The experiment in a line: Open-label Phase II study of bortezomib in relapsed, refractory myeloma: IRC confirmed response (Blade criteria). Type of data set: in vivo, human. As to the method:
An Open-Label Phase II Study of Bortezomib in Patients with Myeloma Who Have Relapsed Following Front-Line Therapy and are Refractory to their Most Recent Therapy
(§1) A multicenter, open-label, non-randomized Phase 2 trial was conducted, wherein enrolled were patients with relapsed myeloma that was refractory to therapy. Patients were treated with 1.3 mg of bortezomib per square meter of body surface area, twice weekly for two weeks, followed by one week without treatment, for up to eight cycles (24 weeks).
(§2) Statistical analysis focused on the need to estimate response rates within specified limits of accuracy in order to determine if either of the two dose levels 1.0 or 1.3 mg/m^2/dose alone or in combination with dexamethasone are sufficiently efficacious to warrant further clinical study. This study was noncomparative in nature; therefore efficacy comparisons between the two doses of bortezomib were not performed. In addition, this study provided safety data that helped to characterize the potential toxicity of treatment at the two evaluated dose levels for up to eight cycles of therapy.
A formal statistical analysis plan was developed and finalized prior to database lock. The primary efficacy analyses were performed on the intent-to-treat (ITT) population. The primary efficacy analysis were performed on the rates of responders, where a responder was defined as a CR, PR, or MR using the criteria prospectively established in Table C. Two-sided 90% confidence limits on proportions of responders in each dose group were established, corresponding to a 95% one-sided lower limit.
Based on the criteria reported by Kraut et al., J. Clin. Oncol. 16(2): 589-592 (1998) and Blade et al., Br. J. Haematol. 102(5): 1115-1123 (1998). In patients with CR, bone marrow was analyzed using PCR for verification of CR at the molecular level.
The Independent Review Committee (IRC) evaluation of confirmed response to treatment with bortezomib alone is provided in Table D; further categorization of response for those patients who experienced partial remission is provided in Table E. This independent panel panel of three medical oncologists reviewed all data for 193 evaluable patients in the trial and assigned response using Blade criteria (Table C). […] An additional 46 (24%) of patients had evidence for stable disease (NC, no change) in response to bortezomib alone, which reflects an improvement in status for these patients who were progressing at the time of study entry. Based on the IRC assessment, 38 (20%) of the 193 patients had progressive disease and an additional 42 patients (22%) were considered not evaluable for response by the IRC. […] See Richardson PG, et al., New Eng. J. Med.; 348: 2609-17 (2003).

On the set-up of data set [2]: species or system human. As to conditions: in vivo. Here is the method: as §1, §2
Over 80% of the 78 patients completed 2 or more cycles of treatment, 62% completed 4 or more cycles, and 27% completed 8 cycles.

In data set [3] the test system is OVCAR-3 and RPMI8226 resistant sub-clones. The experiment in a line: Bortezomib resistant tumor cell lines generated by repeated dosing: resistance to bortezomib. Type of data set: cell-based. As to conditions: sub-clones selected after dosing with 3-5 times the LD50; vs parental lines. As to the method:
In order to better understand the specific mechanism(s) by which proteasome inhibitors exert their apoptotic effects, as well as to elucidate mechanisms by which those effects may be subverted, bortezomib resistant tumor cell lines were generated. […] The drug was then removed and surviving cells were allowed to recover for 24 to 72 hours. This process was then repeated for multiple rounds with the bortezomib dose doubled each time. After cells had been dosed with 3-5 times the LD50, several individual cell lines were sub-cloned from single cell colonies. […] This strategy was applied to both ovarian tumor cell lines (OVCAR-3) and myeloma tumor cell lines (RPMI8226) and multiple sub-clones were characterized. The resistant cell lines were then subject to gene expression profiling using the Affymetrix U133 microarray. A comparison of genes differentially expressed in sensitive parental (S) versus resistant sub-clones (R) highlighted several genes that were also identified in analysis of sensitive and resistant myeloma biopsies. The number identified in Table 8 corresponds to the marker number identification in Table 1. Such results not only highlight a potential relationship between expression of these genes and bortezomib sensitivity, but also support the validity of methods used to define response genes in clinical samples.

The test system of data set [4] is human tumor xenograft models. As to conditions: cited from earlier work.
Where [5] appears, read: IRC assessment, bortezomib alone, N = 193.
Where [6] appears, read: IRC confirmed, bortezomib alone, N = 193.

Turning to `CC(C)C[C@H](NC(=O)[C@H](Cc1ccccc1)NC(=O)c1cnccn1)B(O)O` [bortezomib, N-pyrazinecarbonyl-L-phenylalanine-L-leucineboronic acid], the “CR+PR rate” value in data set [1] (202 patients enrolled, PS-341 alone, prior to added dexamethasone) was 27%. For the same molecule, the “overall response rate to PS-341 alone” value in data set [1] (202 patients enrolled, prior to any patients receiving added dexamethasone) came out at 35%. Also, in data set [1] (setting [5]), the “Not Evaluable for response, number of patients” value turned out to be 42 patients and the “Not Evaluable for response, percent of patients” value was determined as 22%. For the same molecule, in data set [1] (IRC confirmed, bortezomib alone, 1.3 mg/m2 twice weekly, N = 193), the “Complete + Partial + Minor Responses, number of patients” value is reported as 67 patients. Further, in data set [1] (setting [6]), the “Complete + Near Complete Remissions (NCR), number of patients” value is listed as 19 patients; the “Complete + Near Complete Remissions (NCR), percent of patients” value is given as 10%; the “Complete + Partial + Minor Responses, percent of patients” value is listed as 35%; the “Complete + Partial Remissions, number of patients” value is 53 patients. In data set [1] (setting [6]), the “Complete + Partial Remissions, percent of patients” value is on record as 27%; the “Complete Remission (CR), number of patients” value was 19 patients; the “Complete Remission (CR), percent of patients” value was 4%; the “Minor Response (MR), number of patients” value came to 14 patients. Also, in data set [1] (setting [6]), the “Minor Response (MR), percent of patients” value worked out at 5%; the “No Change (stable disease), number of patients” value is reported as 46 patients; the “No Change (stable disease), percent of patients” value came to 27%; the “Partial Remission (PR), number of patients” value was 34 patients. In data set [1] (setting [6]), the “Partial Remission (PR), percent of patients” value amounted to 23%; the “Progressive Disease, number of patients” value was determined as 38 patients; the “Progressive Disease, percent of patients” value is 20%. Moreover, the “tolerability of the dose” value in data set [2] was “well tolerated”. Moreover, the “resistance to bortezomib of resistant sub-clones” value in data set [3] is given as 5-10 fold. For the same molecule, the antitumor activity entry in data set [4] is “demonstrated antitumor activity”.
